In this assay the target is human M4 receptor (Homo sapiens (Human), UniProt P08173). Nature of the assay: Radioligand (tritiated N-methylscopolamine) binding assay, M4. As to conditions: Ki against the M4 receptor; membranes from CHO cells expressing human M4; tritiated N-methylscopolamine 1.5 nM; read-out: Ki. In outline: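 Membranes from CHO cells expressing the receptor were incubated with 1.5 nM radioligand and twelve compound concentrations (10 μM to […]) for 90 min at 37 °C in 50 mM HEPES, 100 mM NaCl, 5 mM MgCl2, 1 mM EDTA, pH 7.4. Bound radioligand was collected by filtration and counted, and Ki was derived from inhibition.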
Sequence of human M4 receptor (P08173 whole entry): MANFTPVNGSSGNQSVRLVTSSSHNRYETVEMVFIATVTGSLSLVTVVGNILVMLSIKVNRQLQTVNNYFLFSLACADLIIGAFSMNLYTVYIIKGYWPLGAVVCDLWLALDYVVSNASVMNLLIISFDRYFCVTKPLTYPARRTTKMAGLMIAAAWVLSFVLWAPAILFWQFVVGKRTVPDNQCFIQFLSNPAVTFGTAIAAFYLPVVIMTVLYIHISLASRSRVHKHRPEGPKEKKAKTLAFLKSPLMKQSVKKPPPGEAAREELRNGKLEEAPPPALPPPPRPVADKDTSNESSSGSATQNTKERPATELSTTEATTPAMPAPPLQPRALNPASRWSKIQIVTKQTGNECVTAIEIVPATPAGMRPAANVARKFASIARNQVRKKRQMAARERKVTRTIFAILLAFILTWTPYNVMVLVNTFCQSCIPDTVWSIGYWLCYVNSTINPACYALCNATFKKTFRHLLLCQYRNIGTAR

Broadly, the Ki is the equilibrium dissociation constant of an inhibitor or competing ligand from its target. On to `COC(=O)C(c1ccccc1)N1CCC(CCNC(=O)C2CCN(c3ccc(OC(F)(F)F)cc3)CC2)CC1` (stereo not drawn) [11-6, methyl 2-phenyl-2-{4-[2-({l-[4-(trifluoromethoxy)phenyl]piperidin-4-yl}formamido)ethyl]piperidin-1-yl}acetate], for which the Ki was 10 to 100 nM.
As for `O=C(NCCC1CCN(Cc2cccc3c2OCCO3)CC1)c1ccc(OCc2ccccc2)cc1` [11-7, 4-(benzyloxy)-N-{2-[1-(2,3-dihydro-1,4-benzodioxin-5-ylmethyl)piperidin-4-yl]ethyl}benzamide], the Ki lay within 10 to 100 nM.
In the case of `N#Cc1ccc(N2CCC(C(=O)NCCC3CCN(CC4CCCCC4)CC3)CC2)nc1` [11-8, 1-(5-cyanopyridin-2-yl)-N-{2-[1-(cyclohexylmethyl)piperidin-4-yl]ethyl}piperidine-4-carboxamide] it was 100 to 1000 nM; in that of `COc1cccc(CN2CCC(CCNC(=O)c3ccc(OCc4ccccc4)cc3)CC2)c1O` [11-9, 4-(benzyloxy)-N-(2-{1-[(2-hydroxy-3-methoxyphenyl)methyl]piperidin-4-yl}ethyl)benzamide], 100 to 1000 nM.
On to `O=C(NCCC1CCN(Cc2csnn2)CC1)C1CCN(c2ccc(OC(F)(F)F)cc2)CC1` [11-11, N-{2-[1-(1,2,3-thiadiazol-4-ylmethyl)piperidin-4-yl]ethyl}-1-[4-(trifluoromethoxy)phenyl]piperidine-4-carboxamide], for which the Ki fell in the range of 100 to 1000 nM.
In the case of `O=C(NCCC1CCN(Cc2cccc(O)c2)CC1)c1ccc(Oc2ccccc2)cc1` [11-13, N-(2-{1-[(3-hydroxyphenyl)methyl]piperidin-4-yl}ethyl)-4-phenoxybenzamide] it was 100 to 1000 nM.
In the case of `CC(c1ccccc1)N1CCC(CCNC(=O)c2ccc(OCc3ccccc3)cc2)CC1` (centres unmarked) [11-14, 4-(benzyloxy)-N-{2-[1-(1-phenylethyl)piperidin-4-yl]ethyl}benzamide] it was 100 to 1000 nM.
In the case of `Cn1cccc1CN1CCC(CCNC(=O)C2CCN(c3ccc(OC(F)(F)F)cc3)CC2)CC1` [11-15, N-(2-{1-[(1-methyl-1H-pyrrol-2-yl)methyl]piperidin-4-yl}ethyl)-1-[4-(trifluoromethoxy)phenyl]piperidine-4-carboxamide] it was 100 to 1000 nM; in that of `N#Cc1ccc(N2CCC(C(=O)NCCC3CCN(Cc4cccc5c4OCCO5)CC3)CC2)nc1` [11-16, 1-(5-cyanopyridin-2-yl)-N-{2-[1-(2,3-dihydro-1,4-benzodioxin-5-ylmethyl)piperidin-4-yl]ethyl}piperidine-4-carboxamide], 100 to 1000 nM; in that of `N#Cc1ccc(N2CCC(C(=O)NCCC3CCN(Cc4ccc(O)cc4)CC3)CC2)nc1` [11-17, 1-(5-cyanopyridin-2-yl)-N-(2-{1-[(4-hydroxyphenyl)methyl]piperidin-4-yl}ethyl)piperidine-4-carboxamide], 100 to 1000 nM.
For the molecule `O=C(NCCC1CCN(Cc2cccc3c2OCCO3)CC1)c1ccc(Oc2ccccc2)cc1` [11-18, N-{2-[1-(2,3-dihydro-1,4-benzodioxin-5-ylmethyl)piperidin-4-yl]ethyl}-4-phenoxybenzamide], the Ki fell in the range of 100 to 1000 nM.
`O=C(NCCC1CCN(CC2CCCCC2)CC1)C1CCN(c2ccc(OC(F)(F)F)cc2)CC1` [11-21, N-{2-[1-(cyclohexylmethyl)piperidin-4-yl]ethyl}-1-[4-(trifluoromethoxy)phenyl]piperidine-4-carboxamide]: the inhibition constant (Ki) lay in the range of 100 to 1000 nM.
For the molecule `O=C(NCCC1CCN(Cc2ccc3[nH]ccc3c2)CC1)C1CCN(c2ccc(OC(F)(F)F)cc2)CC1` [11-22, N-{2-[1-(1H-indol-5-ylmethyl)piperidin-4-yl]ethyl}-1-[4-(trifluoromethoxy)phenyl]piperidine-4-carboxamide], the Ki was in the range of 100 to 1000 nM.
`O=C(NCC(O)C1CCN(CC2CCCCC2)CC1)C1CCN(c2ccc(OC(F)(F)F)cc2)CC1` (centres unmarked) [11-23, N-{2-[1-(cyclohexylmethyl)piperidin-4-yl]-2-hydroxyethyl}-1-[4-(trifluoromethoxy)phenyl]piperidine-4-carboxamide]: the Ki is 100 to 1000 nM.

The values above are taken from patent US11033539B2, “Compounds of formulas (VII), (VIII), (IX), (XI), (XII), (XIII), and (XIV) as muscarinic receptor 4(M4) antagonists for treating neurological diseases” (Neurocrine Biosciences, Inc., priority 2015, dated 2021).
